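Cells were grown in 96-well plates and exposed to each compound for 48 hours at five concentrations; endpoints were interpolated linearly between bracketing concentrations, or set to the highest concentration if not reached. GI50 is the concentration that inhibits growth by half.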 The source made the active and inactive calls. No stated cut-off is given here; in the data, active = GI50 up to about 1.1 µM and inactive = higher.
Legend:
Test in all cases: growth of human tumour cells (NCI), 48 h
NCI-H23 = tested on: NCI-H23
HCT-15 = tested on: HCT-15
BT-549 = tested on: BT-549
SN12C = tested on: SN12C
HCT-116 = tested on: HCT-116
Malme-3M = tested on: Malme-3M
MDA-N = tested on: MDA-N
A549 = tested on: A549
CCRF-CEM = tested on: CCRF-CEM
SK-MEL-5 = tested on: SK-MEL-5
NCI-H522 = tested on: NCI-H522
OVCAR-5 = tested on: OVCAR-5
SNB-19 = tested on: SNB-19
MOLT-4 = tested on: MOLT-4
HOP-62 = tested on: HOP-62
SK-OV-3 = tested on: SK-OV-3
SK-MEL-2 = tested on: SK-MEL-2
U-251 = tested on: U-251
SF-295 = tested on: SF-295
SR = tested on: SR

| Compound | GI50 (NCI-H23) | GI50 (HCT-15) [µM] | GI50 (BT-549) | GI50 (SN12C) | GI50 (HCT-116) | GI50 (Malme-3M) | GI50 (MDA-N) | GI50 (A549) | GI50 (CCRF-CEM) | GI50 (SK-MEL-5) | GI50 (NCI-H522) | GI50 (OVCAR-5) | GI50 (SNB-19) | GI50 (MOLT-4) | GI50 (HOP-62) | GI50 (SK-OV-3) | GI50 (SK-MEL-2) | GI50 (U-251) | GI50 (SF-295) | GI50 (SR) |
| --- | --- | --- | --- | --- | --- | --- | --- | --- | --- | --- | --- | --- | --- | --- | --- | --- | --- | --- | --- | --- |
| O=C(/C=C1\C[C@H]2C=Nc3ccccc3C(=O)N2C1)NCCCCNC(=O)/C=C1\C[C@H]2C=Nc3ccccc3C(=O)N2C1 | 11.3 µM (inactive) | 8.89 | 12.9 µM (inactive) | 5.05 µM (inactive) | 12.3 µM (inactive) | 6.81 µM (inactive) | 11 µM (inactive) | 20.7 µM (inactive) | 1.39 µM (inactive) | 12.8 µM (inactive) | 1.4 µM (inactive) | 19.2 µM (inactive) | 16.6 µM (inactive) | 2.91 µM (inactive) | 17.2 µM (inactive) | 18.3 µM (inactive) | 15.2 µM (inactive) | 3.37 µM (inactive) | 19.5 µM (inactive) |  |
| CCN(CC)CCC(=O)c1ccc(Cl)c(Cl)c1 | > 10 µM (inactive) | 34.6 | 21.2 µM (inactive) | 39.3 µM (inactive) | 27.5 µM (inactive) | 24.7 µM (inactive) | > 10 µM (inactive) | > 100 µM (inactive) | 17.6 µM (inactive) | 20.1 µM (inactive) | 17.3 µM (inactive) | > 100 µM (inactive) | > 100 µM (inactive) | 19.9 µM (inactive) | > 100 µM (inactive) | > 100 µM (inactive) |  | 36.6 µM (inactive) | > 100 µM (inactive) | 24.3 µM (inactive) |
| CCCCCCNC(=O)c1cc(NCc2cc(OC)ccc2OC)ccc1O | 24.7 µM (inactive) | 21.1 | 15.5 µM (inactive) | 20.6 µM (inactive) | 21.1 µM (inactive) | 22.5 µM (inactive) | 18.9 µM (inactive) | 29.6 µM (inactive) | 20.5 µM (inactive) | 14.5 µM (inactive) | 14.3 µM (inactive) | 51.4 µM (inactive) | 33 µM (inactive) | 25.7 µM (inactive) |  | 13.1 µM (inactive) | 21.7 µM (inactive) | 17.9 µM (inactive) | 12 µM (inactive) |  |
| COc1ccc(Nc2nc3cc(C(F)(F)F)ccc3nc2C(=O)O)cc1 | 14.4 µM (inactive) | 16.6 | 14.4 µM (inactive) | 27 µM (inactive) | 15.5 µM (inactive) | 18.2 µM (inactive) | 31 µM (inactive) |  |  | 16.7 µM (inactive) | 12.4 µM (inactive) | 24.2 µM (inactive) | 16 µM (inactive) | 7.87 µM (inactive) | 14.9 µM (inactive) |  | 14.5 µM (inactive) | 13 µM (inactive) | 13 µM (inactive) | 11.1 µM (inactive) |
| Cc1ccc(-c2nc(Cc3n[nH]c(-c4ccc(C)cc4)n3)n[nH]2)cc1 | 18.3 µM (inactive) | > 100 | > 100 µM (inactive) | > 100 µM (inactive) | 36.1 µM (inactive) |  | > 100 µM (inactive) | > 100 µM (inactive) | > 100 µM (inactive) | > 100 µM (inactive) | 2.99 µM (inactive) | > 100 µM (inactive) | 44.2 µM (inactive) | > 100 µM (inactive) | 29 µM (inactive) | > 100 µM (inactive) | > 100 µM (inactive) | 3.71 µM (inactive) | > 100 µM (inactive) |  |
| c1ccc2c(OCC3CO3)ccc(OCC3CO3)c2c1 (stereo unspecified) | 2.51 µM (inactive) | 3.85 | 6.49 µM (inactive) | 2.22 µM (inactive) | 1.36 µM (inactive) | 7.13 µM (inactive) | 2.8 µM (inactive) | 4.32 µM (inactive) | 0.27 µM (active) | 6.64 µM (inactive) | 10.4 µM (inactive) | 11.2 µM (inactive) | 8.13 µM (inactive) | 0.352 µM (active) | 3.03 µM (inactive) | 12.6 µM (inactive) |  | 2.32 µM (inactive) | 2.86 µM (inactive) | 0.343 µM (active) |
| Cc1nn(C(=O)Cc2ccccc2)c2c1C(c1ccccc1[N+](=O)[O-])SC(=N)N2 (stereo unspecified) | > 100 µM (inactive) | > 100 | > 100 µM (inactive) | > 100 µM (inactive) | > 100 µM (inactive) | > 100 µM (inactive) | > 100 µM (inactive) | > 100 µM (inactive) | > 100 µM (inactive) | > 100 µM (inactive) | > 100 µM (inactive) |  | > 100 µM (inactive) | > 100 µM (inactive) | > 100 µM (inactive) | > 100 µM (inactive) |  |  | > 100 µM (inactive) | > 100 µM (inactive) |
| C[C@@H]1S[C@H](c2c(F)cccc2Cl)n2c1nc1ccccc12 | 14.5 µM (inactive) | 6.76 | 11.6 µM (inactive) | 15.6 µM (inactive) | 4.49 µM (inactive) | 14.8 µM (inactive) | 7.62 µM (inactive) | 17.1 µM (inactive) | 10.6 µM (inactive) |  |  | 33.4 µM (inactive) | 26.4 µM (inactive) | 5.04 µM (inactive) | 15.3 µM (inactive) | 28.4 µM (inactive) | 15.7 µM (inactive) | 10.8 µM (inactive) | 18.5 µM (inactive) | 7.23 µM (inactive) |
| C[N+](C)(C)[BH-](Br)C(O)O (stereo unspecified) | > 100 µM (inactive) | > 100 | > 100 µM (inactive) | > 100 µM (inactive) | > 100 µM (inactive) |  | > 100 µM (inactive) | > 100 µM (inactive) | > 100 µM (inactive) | > 100 µM (inactive) | > 100 µM (inactive) | > 100 µM (inactive) | > 100 µM (inactive) | > 100 µM (inactive) | > 100 µM (inactive) |  | > 100 µM (inactive) | > 100 µM (inactive) | > 100 µM (inactive) | > 100 µM (inactive) |
| CCCSC1=N/C(=C\c2ccco2)C(=O)N1 | > 100 µM (inactive) | > 100 | > 100 µM (inactive) | > 100 µM (inactive) | > 100 µM (inactive) | > 100 µM (inactive) | > 100 µM (inactive) | > 100 µM (inactive) |  |  | > 100 µM (inactive) | > 100 µM (inactive) | > 100 µM (inactive) | > 100 µM (inactive) | > 100 µM (inactive) | > 100 µM (inactive) | > 100 µM (inactive) | > 100 µM (inactive) | > 100 µM (inactive) |  |
| O=c1c(C(c2ccc(O)cc2)c2c(O)oc3ccccc3c2=O)c(O)oc2ccccc12 | > 100 µM (inactive) | 36.6 | 59.8 µM (inactive) | 56.8 µM (inactive) | > 100 µM (inactive) | 86.9 µM (inactive) | 45.2 µM (inactive) |  | 74.3 µM (inactive) | 83.8 µM (inactive) | 22.5 µM (inactive) |  | 71.8 µM (inactive) |  | 96.8 µM (inactive) |  | > 100 µM (inactive) | 34.9 µM (inactive) |  |  |
| C(/Cc1ccc2c(c1)OCO2)=N\N=C1NCCN1 | > 100 µM (inactive) | > 100 | 91.2 µM (inactive) | 84.7 µM (inactive) | 58.9 µM (inactive) | > 100 µM (inactive) |  | 73.8 µM (inactive) | > 100 µM (inactive) | 47.3 µM (inactive) | > 100 µM (inactive) | 57.3 µM (inactive) | > 100 µM (inactive) | 52.6 µM (inactive) | 56.1 µM (inactive) | 48.6 µM (inactive) | > 100 µM (inactive) | > 100 µM (inactive) | 42.4 µM (inactive) | 73.5 µM (inactive) |
| NS(=O)(=O)c1ccc(NC(=O)c2cc([N+](=O)[O-])cc([N+](=O)[O-])c2)cc1 | 41.4 µM (inactive) | 44.3 | > 100 µM (inactive) | 21.7 µM (inactive) | 45 µM (inactive) | 24.8 µM (inactive) | 21.8 µM (inactive) | 42.6 µM (inactive) | 28.8 µM (inactive) | 38.7 µM (inactive) |  |  | 45.9 µM (inactive) | 68.9 µM (inactive) | > 100 µM (inactive) | 80.4 µM (inactive) | 34.1 µM (inactive) | 37.8 µM (inactive) |  | 63.1 µM (inactive) |
| c1ccc(C2(c3cc4ccccc4[nH]3)OCCO2)cc1 | > 100 µM (inactive) | 41.6 | 75.7 µM (inactive) | 41.2 µM (inactive) | 37.8 µM (inactive) |  | 49.1 µM (inactive) | 39.4 µM (inactive) | 18.4 µM (inactive) | 23.1 µM (inactive) |  | 30.8 µM (inactive) | > 100 µM (inactive) | 11.6 µM (inactive) |  | 85.1 µM (inactive) | 42.6 µM (inactive) | > 100 µM (inactive) | 53.1 µM (inactive) | 22.4 µM (inactive) |
| CN1CCc2c(sc3ncn(C)c(=N)c23)C1 | > 100 µM (inactive) | > 100 | > 100 µM (inactive) | > 100 µM (inactive) | > 100 µM (inactive) | > 100 µM (inactive) | > 100 µM (inactive) | > 100 µM (inactive) | > 100 µM (inactive) | > 100 µM (inactive) | > 100 µM (inactive) | > 100 µM (inactive) | > 100 µM (inactive) | > 100 µM (inactive) | > 100 µM (inactive) | > 100 µM (inactive) | > 100 µM (inactive) | > 100 µM (inactive) | > 100 µM (inactive) |  |

— ChEMBL document CHEMBL1201862, “PubChem BioAssay data set” (2004)
